Results: article PMC10281575, “PfCRT mutations conferring piperaquine resistance in falciparum malaria shape the kinetics of quinoline drug binding and transport” (PLOS Pathogens, 2023)
“And” between values parts separate entries of the source, which are not always exact repeats. Identical values can stand only once. Like-named read-outs stand apart in the source and are kept apart here.

Target: T1, PfCRT^Dd2_F145I (Plasmodium falciparum, UniProt Q8IBZ9, A220S/F145I/I356T/K76T/M74I/N326S/N75E/Q271E/R371I)
T1 construct: expressed in transfected cells; host or cells: Xenopus laevis oocytes injected with in vitro transcribed RNA (pSP64T)
T1 sequence (Q8IBZ9 1-424 M74I/N75E/K76T/F145I/A220S/Q271E/N326S/I356T/R371I): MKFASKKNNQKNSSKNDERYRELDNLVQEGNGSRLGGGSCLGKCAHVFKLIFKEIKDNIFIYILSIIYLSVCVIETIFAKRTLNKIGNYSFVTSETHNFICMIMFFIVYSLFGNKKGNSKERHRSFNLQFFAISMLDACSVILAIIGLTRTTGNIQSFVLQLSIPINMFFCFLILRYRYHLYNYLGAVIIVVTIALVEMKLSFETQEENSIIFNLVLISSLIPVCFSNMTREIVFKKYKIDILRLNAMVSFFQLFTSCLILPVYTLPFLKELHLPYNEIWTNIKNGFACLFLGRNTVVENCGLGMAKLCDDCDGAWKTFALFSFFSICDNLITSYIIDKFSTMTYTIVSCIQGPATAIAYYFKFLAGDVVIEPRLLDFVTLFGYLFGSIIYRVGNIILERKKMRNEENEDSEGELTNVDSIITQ
Assay: Competition kinetics of drug transport (radiolabeled substrate plus cold inhibitor), PfCRT^Dd2_F145I-expressing oocytes
Type: cell-based
Conditions: for Vmax, maximal velocity of drug transport: global fit; for β, partiality factor: factor on transport of the labeled drug by the other drug
Procedure: To further characterize the kinetic relationship between CQ and PPQ, we performed a series of competition reactions. To this end, water-injected oocytes and PfCRT-expressing oocytes were incubated in medium containing one of seven concentrations of radio-labeled CQ and one of six concentrations of cold PPQ for 60 min before the amount of radio-labeled CQ uptake was determined. The rate of PfCRT-mediated CQ uptake was calculated for each condition by subtracting the corresponding value obtained for water-injected oocytes from those of PfCRT-expressing oocytes. The results were analyzed as a function of the CQ concentration (Fig 4A) and 16 different models of substrate competition were globally fit to the data by the least-squares method, using Python. The models were ranked, according to their Akaike information criterion difference (ΔAICC) and their Akaike weight (Fig 4B), with the most plausible model being the one with the lowest AICC (ΔAICC = 0) and the highest Akaike weight.
A complementary set of experiments was undertaken to investigate the kinetic mechanism by which PfCRT^Dd2_F145I accepts CQ and PPQ (Fig 6). […] These included a global fit of the substrate competition data to the 16 kinetic models (Fig 6), analysis of the secondary plots (Vmax,app and Vmax,app/KM,app as a function of the inhibitor concentration) (Fig 7A), a fractional velocity plot analysis (Fig 7B) and a comparison of the experimental data with the modelled data using the noncompetitive inhibition equation (Fig 7C to 7F). […] The fractional velocity plot illustrated the partial character of the noncompetitive inhibition mechanism by yielding a partiality factor β^CQ = 0.31 ± 0.04, by which PPQ reduces the transport velocity of CQ (Fig 7B). […] A 3D model of the kinetics between PfCRT^Dd2_F145I, CQ and PPQ, and analyses of the residuals as a function of substrate and inhibitor concentrations confirmed that the model was also an appropriate explanation for the mutant transporter (Fig 7C to 7F).
Drug transport assays were performed as previously described. Briefly, measurements of radiolabeled drug uptake were made over 1 h, unless otherwise specified. […] Where specified, one or more unlabeled drugs were also present at the indicated concentrations. The direction of drug transport in the assays is from the extracellular medium (pH 6) into the oocyte cytosol (pH 7.2), which corresponds to the efflux of CQ or PPQ from the acidic digestive vacuole (pH 5.2) into the parasite cytosol (pH 7.2). The uptake assays were terminated by removing the oocytes from the reaction medium and washing them three times with 2 mL of ice-cold ND96 buffer. Each oocyte was transferred to a separate scintillation vial and lysed by the addition of 200 μL of a 5% SDS solution. The radioactivity in the sample was measured using a liquid scintillation analyser Tri-Carb 4910 TR (PerkinElmer). Water-injected oocytes were analyzed in parallel as a negative control. The buffer from each condition was measured in duplicate in parallel to each experiment to transform counts per minute into pmol of drug. Drug uptake attributable to PfCRT was determined by subtracting the background uptake from water-injected oocytes from that of PfCRT-expressing oocytes. In all cases, at least three independent experiments were performed on oocytes from different frogs, and for each condition in an experiment, measurements were made from 10 oocytes per treatment.
The following equations were adopted from Segel (1993), and the reader is referred to that text for the assumptions made in the author’s approach in the derivation of each equation [31]. The concentration of substrate is denoted as [S1] and the concentration of the inhibiting substrate is denoted as [S2]. KS1 and KS2 are the dissociation constants for the respective substrate-protein complexes.
Analyses of the kinetic data were performed using SigmaPlot version 13.0 and Python. […]

For `Clc1ccc2c(N3CCN(CCCN4CCN(c5ccnc6cc(Cl)ccc56)CC4)CC3)ccnc2c1` [PPQ, piperaquine], the “PfCRTDd2_F145I-mediated PPQ transport” value (500 µM PPQ, 400 µM CQ) was 83.51 pmol oocyte-1 h-1 and 92.59 pmol oocyte-1 h-1, the “v / (Vmax - v)” value (1/[PPQ] 0.002000 µM-1) was 0.4488 and the “v / (Vmax - v)” value (1/[PPQ] 0.002857 µM-1) was 0.4948. The “v / (Vmax - v)” value (1/[PPQ] 0.005000 µM-1) was 0.5591, the “v / (Vmax - v)” value (1/[PPQ] 0.008000 µM-1) was 0.7269 and the “v / (Vmax - v)” value (1/[PPQ] 0.020000 µM-1) was 0.8760. The “most plausible inhibition model” value (16 models, ΔAICC, Akaike weight, secondary plots) was “partial noncompetitive inhibition”, the “Vmax, maximal velocity of drug transport” value (Mixed (Partial) model, drug as radiolabeled substrate) was 150 ± 5 pmol oocyte^-1 h^-1 and the Kd (Mixed (Partial) model, drug as cold inhibitor, read-out: KS, dissociation constant for the PfCRT-substrate complex) was 160 ± 40 µM. The Kd (Mixed (Partial) model, drug as radiolabeled substrate, read-out: KS, dissociation constant for the PfCRT-substrate complex) was 128 ± 11 µM, the “β, partiality factor” value (Mixed (Partial) model) was 0.64 ± 0.09 and the “α, KS interaction factor” value (Mixed (Partial) model, label = radiolabeled substrate, other drug cold inhibitor) was 1.2 ± 0.3. For the same compound, the “Vmax, maximal velocity of drug transport” value (Noncompetitive (Partial) model, drug as radiolabeled substrate, other drug as cold inhibitor) was 152 pmol oocyte^-1 h^-1 and 152 ± 4 pmol oocyte^-1 h^-1, the Kd (Noncompetitive (Partial) model, drug as cold inhibitor, read-out: KS, dissociation constant for the PfCRT-substrate complex) was 167 µM and 170 µM and the Kd (Noncompetitive (Partial) model, drug as radiolabeled substrate, read-out: KS, dissociation constant for the PfCRT-substrate complex) was 134 ± 8 µM. The “β, partiality factor” value (Noncompetitive (Partial) model) was 0.61 and 0.61 ± 0.07, the “KMapp ([3H]PPQ + CQ)” value ([CQ] 0 µM) was 124.39 µM and the “Vmaxapp ([3H]PPQ + CQ)” value ([CQ] 0 µM) was 148.37 pmol oocyte-1 h-1. The “Vmaxapp/KMapp ([3H]PPQ + CQ)” value ([CQ] 0 µM) was 1.1929 h⁻¹, the “KMapp ([3H]PPQ + CQ)” value ([CQ] 25 µM) was 139.84 µM and the “Vmaxapp ([3H]PPQ + CQ)” value ([CQ] 25 µM) was 149.64 pmol oocyte-1 h-1. For the same compound, the “Vmaxapp/KMapp ([3H]PPQ + CQ)” value ([CQ] 25 µM) was 1.0701 h⁻¹, the “KMapp ([3H]PPQ + CQ)” value ([CQ] 50 µM) was 130.94 µM and the “Vmaxapp ([3H]PPQ + CQ)” value ([CQ] 50 µM) was 139.65 pmol oocyte-1 h-1. The “Vmaxapp/KMapp ([3H]PPQ + CQ)” value ([CQ] 50 µM) was 1.0665 h⁻¹, the “KMapp ([3H]PPQ + CQ)” value ([CQ] 125 µM) was 131.31 µM and the “Vmaxapp ([3H]PPQ + CQ)” value ([CQ] 125 µM) was 130.07 pmol oocyte-1 h-1. The “Vmaxapp/KMapp ([3H]PPQ + CQ)” value ([CQ] 125 µM) was 0.9905 h⁻¹, the “KMapp ([3H]PPQ + CQ)” value ([CQ] 200 µM) was 138.10 µM and the “Vmaxapp ([3H]PPQ + CQ)” value ([CQ] 200 µM) was 125.38 pmol oocyte-1 h-1. The “Vmaxapp/KMapp ([3H]PPQ + CQ)” value ([CQ] 200 µM) was 0.9079 h⁻¹, the “KMapp ([3H]PPQ + CQ)” value ([CQ] 400 µM) was 147.48 µM and the “Vmaxapp ([3H]PPQ + CQ)” value ([CQ] 400 µM) was 117.65 pmol oocyte-1 h-1. For the same compound, the “Vmaxapp/KMapp ([3H]PPQ + CQ)” value ([CQ] 400 µM) was 0.7978 h⁻¹, the Kd (secondary plot, half-maximal inhibitory concentration of Vmax,app versus inhibitor concentration, read-out: αKS, dissociation constant between the drug and the PfCRT complex with the other drug) was 170 ± 30 µM and the Kd (secondary plot, half-maximal inhibitory concentration of Vmax,app/KM,app versus inhibitor concentration, read-out: KS, dissociation constant between the drug and PfCRT) was 170 ± 50 µM. The “α (αKS divided by KS)” value (secondary plots, label = prebound drug) was 0.8 ± 0.7.
